Assay results from ChEMBL document CHEMBL5723584 (2023).

Tests used:
[1] = target: T1, Citron Rho-interacting kinase (Homo sapiens, UniProt O14578); assay: NanoLuc NanoBRET (CITKD)
[2] = target: T1, Citron Rho-interacting kinase; assay: NanoLuc NanoBRET (CIT)

T1 sequence (O14578 whole entry): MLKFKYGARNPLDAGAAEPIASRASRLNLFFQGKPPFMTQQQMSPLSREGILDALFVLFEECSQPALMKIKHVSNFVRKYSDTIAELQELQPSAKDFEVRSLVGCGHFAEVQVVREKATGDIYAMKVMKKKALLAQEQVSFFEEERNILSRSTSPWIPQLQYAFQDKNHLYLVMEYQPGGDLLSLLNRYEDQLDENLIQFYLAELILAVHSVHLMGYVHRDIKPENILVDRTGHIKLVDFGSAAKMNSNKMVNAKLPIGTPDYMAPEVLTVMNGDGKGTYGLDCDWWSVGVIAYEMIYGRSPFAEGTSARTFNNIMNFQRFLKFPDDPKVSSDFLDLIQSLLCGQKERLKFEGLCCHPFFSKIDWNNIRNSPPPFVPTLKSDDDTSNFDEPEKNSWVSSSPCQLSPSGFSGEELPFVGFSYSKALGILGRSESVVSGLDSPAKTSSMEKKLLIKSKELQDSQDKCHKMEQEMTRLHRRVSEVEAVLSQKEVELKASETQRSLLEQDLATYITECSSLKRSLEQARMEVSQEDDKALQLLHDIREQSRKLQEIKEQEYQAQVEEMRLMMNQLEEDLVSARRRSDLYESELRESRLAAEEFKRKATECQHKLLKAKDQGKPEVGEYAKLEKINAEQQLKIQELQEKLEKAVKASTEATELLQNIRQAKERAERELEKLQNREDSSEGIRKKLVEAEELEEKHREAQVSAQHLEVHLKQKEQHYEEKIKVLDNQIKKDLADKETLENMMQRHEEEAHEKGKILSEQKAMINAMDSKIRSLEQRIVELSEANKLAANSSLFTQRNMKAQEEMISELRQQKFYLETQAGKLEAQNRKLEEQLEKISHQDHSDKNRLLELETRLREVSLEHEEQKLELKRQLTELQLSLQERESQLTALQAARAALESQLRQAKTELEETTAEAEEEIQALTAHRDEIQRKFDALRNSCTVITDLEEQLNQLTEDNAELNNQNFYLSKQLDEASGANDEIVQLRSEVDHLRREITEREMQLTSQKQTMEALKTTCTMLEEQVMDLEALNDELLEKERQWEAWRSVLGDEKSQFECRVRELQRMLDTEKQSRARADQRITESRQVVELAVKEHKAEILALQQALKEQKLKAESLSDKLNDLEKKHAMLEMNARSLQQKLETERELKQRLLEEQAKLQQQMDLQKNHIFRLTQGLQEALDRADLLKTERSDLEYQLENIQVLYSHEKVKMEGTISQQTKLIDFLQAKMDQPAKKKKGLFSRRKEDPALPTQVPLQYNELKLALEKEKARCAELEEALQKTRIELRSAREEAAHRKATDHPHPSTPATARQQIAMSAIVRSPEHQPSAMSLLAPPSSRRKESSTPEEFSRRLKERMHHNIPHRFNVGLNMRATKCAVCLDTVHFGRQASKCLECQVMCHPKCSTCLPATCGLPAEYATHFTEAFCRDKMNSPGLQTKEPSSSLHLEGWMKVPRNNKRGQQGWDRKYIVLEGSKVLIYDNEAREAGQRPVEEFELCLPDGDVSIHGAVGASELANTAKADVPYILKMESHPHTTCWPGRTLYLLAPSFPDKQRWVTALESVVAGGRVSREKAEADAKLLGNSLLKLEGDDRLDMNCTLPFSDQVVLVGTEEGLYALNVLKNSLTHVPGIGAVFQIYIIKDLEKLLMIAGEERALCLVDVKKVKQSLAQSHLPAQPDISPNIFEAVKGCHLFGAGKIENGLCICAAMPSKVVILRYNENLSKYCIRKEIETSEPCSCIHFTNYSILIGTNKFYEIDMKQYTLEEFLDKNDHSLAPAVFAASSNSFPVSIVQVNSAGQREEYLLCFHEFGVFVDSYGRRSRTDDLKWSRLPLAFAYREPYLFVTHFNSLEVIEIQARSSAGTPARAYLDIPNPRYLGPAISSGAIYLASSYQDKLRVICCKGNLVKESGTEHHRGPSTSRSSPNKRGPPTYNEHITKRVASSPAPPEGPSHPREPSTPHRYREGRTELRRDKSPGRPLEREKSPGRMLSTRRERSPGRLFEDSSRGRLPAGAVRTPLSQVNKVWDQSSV

**Q.** Which results are given for `Cc1cc2c(-c3ccc(NC(=O)[C@H](N)CC(C)(C)C)cc3C)cncc2[nH]1`?
**A.** Kd [1]: no binding; Kd [2]: no binding
